pEC50: −log10 of the molar value.
Test system: HCV 1b-377-neo replicon cells
Assay: HCV replicon assay, HCV 1b-377-neo replicon cells (1b FRET)
Format: cell-based, Hepatitis C virus genotype 1b
Conditions: Hepatitis C virus, HCV 1b-377-neo replicon cells; HCV 1b genotype; read-out: EC50 range against HCV 1b (Table 2, Range)
In short: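 Compounds tested in HCV genotype 1b-377-neo replicon cells with a FRET read-out. Cells resistant to a reference NS5A inhibitor through a Y2065H NS5A mutation were run alongside wild-type cells.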

Row | SMILES | pEC50
1 | COC(=O)N[C@@H](C(=O)N1CCC[C@H]1c1ncc(-c2ccc(-c3ccc(-c4cnc([C@@H]5CCCN5C(=O)[C@H](C)c5ccccc5)[nH]4)cc3)cc2)[nH]1)c1ccccc1 [Example 84-76, methyl ((1R)-2-oxo-1-phenyl-2-((2S)-2-(5-(4′-(2-((2S)-1-((2R)-2-phenylpropanoyl)-2-pyrrolidinyl)-1H-imidazol-5-yl)-4-biphenylyl)-1H-imidazol-2-yl)-1-pyrrolidinyl)ethyl)carbamate] | 9.00 to 12.00
2 | COC(=O)N[C@@H](C)C(=O)N1CCC[C@H]1c1ncc(-c2ccc(-c3ccc(-c4cnc([C@@H]5CCCN5C(=O)[C@@H](NC(=O)OC)C5CC5)[nH]4)cc3)cc2)[nH]1 [Example M93, methyl ((1S)-1-cyclopropyl-2-((2S)-2-(5-(4′-(2-((2S)-1-(N-(methoxycarbonyl)-L-alanyl)-2-pyrrolidinyl)-1H-imidazol-5-yl)-4-biphenylyl)-1H-imidazol-2-yl)-1-pyrrolidinyl)-2-oxoethyl)carbamate] | 7.00 to 9.00
3 | COC(=O)N[C@@H](Cc1cscn1)C(=O)N1CCC[C@H]1c1ncc(-c2ccc(-c3ccc(-c4cnc([C@@H]5CCCN5C(=O)[C@H](Cc5cscn5)NC(=O)OC)[nH]4)cc3)cc2)[nH]1 [cj-153, methyl ((1S)-2-((2S)-2-(5-(4′-(2-((2S)-1-((2S)-2-((methoxycarbonyl)amino)-3-(1,3-thiazol-4-yl)propanoyl)-2-pyrrolidinyl)-1H-imidazol-5-yl)-4-biphenylyl)-1H-imidazol-2-yl)-1-pyrrolidinyl)-2-oxo-1-(1,3-thiazol-4-ylmethyl)ethyl)carbamate] | 9.00 to 12.00
4 | CCN(C)[C@@H](C(=O)N1CCC[C@H]1c1ncc(-c2ccc(-c3ccc(-c4cnc([C@@H]5CCCN5C(=O)[C@@H]5CCCO5)[nH]4)cc3)cc2)[nH]1)c1ccccc1 [Example 107, (1R)-N-ethyl-N-methyl-2-oxo-1-phenyl-2-((2S)-2-(5-(4′-(2-((2S)-1-((2S)-tetrahydro-2-furanylcarbonyl)-2-pyrrolidinyl)-1H-imidazol-5-yl)-4-biphenylyl)-1H-imidazol-2-yl)-1-pyrrolidinyl)ethanamine] | 9.00 to 12.00
5 | CO[C@@H](C(=O)N1CCC[C@H]1c1ncc(-c2ccc(-c3ccc(-c4cnc([C@@H]5CCCN5C(=O)[C@@H](c5ccccc5F)N(C)C)[nH]4)cc3)cc2)[nH]1)c1ccccc1 [Example 107-32, (1R)-1-(2-fluorophenyl)-2-((2S)-2-(5-(4′-(2-((2S)-1-((2R)-2-methoxy-2-phenylacetyl)-2-pyrrolidinyl)-1H-imidazol-5-yl)-4-biphenylyl)-1H-imidazol-2-yl)-1-pyrrolidinyl)-N,N-dimethyl-2-oxoethanamine] | 9.00 to 12.00
6 | COC(=O)N[C@@H](C(=O)N[C@@H](C)c1ncc(-c2ccc(-c3ccc(-c4cnc([C@@H]5CCCN5C(=O)[C@H](NC(=O)OC)c5ccccc5)[nH]4)cc3)nc2)[nH]1)c1ccccc1 [Example 152j-22, methyl ((1R)-2-((2S)-2-(5-(4-(5-(2-((1S)-1-(((2R)-2-((methoxycarbonyl)amino)-2-phenylacetyl)amino)ethyl)-1H-imidazol-5-yl)-2-pyridinyl)phenyl)-1H-imidazol-2-yl)-1-pyrrolidinyl)-2-oxo-1-phenylethyl)carbamate] | 9.00 to 12.00
7 | COC(=O)N[C@@H](C(=O)N1CCC[C@H]1c1ncc(-c2ccc(-c3cnc(-c4cnc([C@@H]5CCCN5C(=O)[C@H](NC(=O)OC)c5ccccc5)[nH]4)cn3)cc2)[nH]1)c1ccccc1 [Example 152j-8, methyl ((1R)-2-((2S)-2-(5-(5-(4-(2-((2S)-1-((2R)-2-((methoxycarbonyl)amino)-2-phenylacetyl)-2-pyrrolidinyl)-1H-imidazol-5-yl)phenyl)-2-pyrazinyl)-1H-imidazol-2-yl)-1-pyrrolidinyl)-2-oxo-1-phenylethyl)carbamate] | 9.00 to 12.00
8 | COC(=O)N[C@H](C(=O)N1CCC[C@H]1c1nc(-c2cnc(-c3ccc(-c4cnc([C@@H]5CCCN5C(=O)[C@@H](NC(=O)OC)C(C)C)[nH]4)cc3)nc2)c[nH]1)C(C)C [Example D74, methyl ((1S)-1-(((2S)-2-(5-(2-(4-(2-((2S)-1-((2S)-2-((methoxycarbonyl)amino)-3-methylbutanoyl)-2-pyrrolidinyl)-1H-imidazol-5-yl)phenyl)-5-pyrimidinyl)-1H-imidazol-2-yl)-1-pyrrolidinyl)carbonyl)-2-methylpropyl)carbamate] | 9.00 to 12.00
9 | CCN(CC)[C@@H](C)C(=O)N1CCC[C@H]1c1ncc(-c2ccc(-c3ccc(-c4cnc([C@@H]5CCCN5C(=O)[C@@H](c5ccccc5)N(CC)CC)[nH]4)cc3)cc2)[nH]1 [Example M36, (2S)-1-((2S)-2-(5-(4′-(2-((2S)-1-((2R)-2-(diethylamino)-2-phenylacetyl)-2-pyrrolidinyl)-1H-imidazol-5-yl)-4-biphenylyl)-1H-imidazol-2-yl)-1-pyrrolidinyl)-N,N-diethyl-1-oxo-2-propanamine] | 7.00 to 9.00
10 | COC(=O)N[C@@H](C(=O)N1CCC[C@H]1c1ncc(-c2ccc(-c3ccc(-c4cnc([C@@H]5CCCN5C(=O)C(c5ccccn5)N(C)C)[nH]4)cc3)cc2)[nH]1)c1ccccc1 (stereo partly drawn) [Example 84-61, methyl ((1R)-2-((2S)-2-(5-(4′-(2-((2S)-1-((dimethylamino)(2-pyridinyl)acetyl)-2-pyrrolidinyl)-1H-imidazol-5-yl)-4-biphenylyl)-1H-imidazol-2-yl)-1-pyrrolidinyl)-2-oxo-1-phenylethyl)carbamate] | 9.00 to 12.00
11 | CCN(CC)[C@@H](C(=O)N1CCC[C@H]1c1nc(-c2ccc(-c3ccc(-c4[nH]c([C@@H]5CCCN5C(=O)[C@@H](c5ccccc5)N(CC)CC)nc4C)cc3)cc2)c(C)[nH]1)c1ccccc1 [Example E5h, (1R,1′R)-2,2′-(4,4′-biphenyldiylbis((4-methyl-1H-imidazole-5,2-diyl)(2S)-2,1-pyrrolidinediyl))bis(N,N-diethyl-2-oxo-1-phenylethanamine)] | 9.00 to 12.00
12 | COC(=O)N[C@@H](C(=O)N1CCC[C@H]1c1ncc(-c2ccc(-c3ccc(-c4cnc([C@@H]5CCCN5C(C)=O)[nH]4)cc3)cc2)[nH]1)c1ccccc1 [Example 31, methyl ((1R)-2-((2S)-2-(5-(4′-(2-((2S)-1-acetyl-2-pyrrolidinyl)-1H-imidazol-5-yl)-4-biphenylyl)-1H-imidazol-2-yl)-1-pyrrolidinyl)-2-oxo-1-phenylethyl)carbamate] | 9.00 to 12.00
13 | COC(=O)N[C@@H](C)C(=O)N1[C@@H](C)CC[C@H]1c1nc(-c2ccc(-c3ccc(-c4c[nH]c([C@@H]5CC[C@H](C)N5C(=O)[C@H](C)NC(=O)OC)n4)cc3)cc2)c[nH]1 [Example M157, methyl ((1S)-2-((2S,5S)-2-(4-(4′-(2-((2S,5S)-1-(N-(methoxycarbonyl)-L-alanyl)-5-methyl-2-pyrrolidinyl)-1H-imidazol-4-yl)-4-biphenylyl)-1H-imidazol-2-yl)-5-methyl-1-pyrrolidinyl)-1-methyl-2-oxoethyl)carbamate] | 9.00 to 12.00
14 | COC(=O)N[C@@H](C)C(=O)N1CCC[C@H]1c1nc(-c2ccc(-c3ccc(-c4[nH]c([C@@H]5CCCN5C(=O)[C@H](C)NC(=O)OC)nc4C)cc3)cc2)c(C)[nH]1 [Example E5k, methyl ((1S)-2-((2S)-2-(4-(4′-(2-((2S)-1-(N-(methoxycarbonyl)-L-alanyl)-2-pyrrolidinyl)-5-methyl-1H-imidazol-4-yl)-4-biphenylyl)-5-methyl-1H-imidazol-2-yl)-1-pyrrolidinyl)-1-methyl-2-oxoethyl)carbamate] | 9.00 to 12.00
15 | COC(=O)N[C@@H](Cc1cccnc1)C(=O)N1CCC[C@H]1c1ncc(-c2ccc(-c3ccc(-c4cnc([C@@H]5CCCN5C(=O)[C@@H](NC(=O)OC)[C@@H](C)OC)[nH]4)cc3)cc2)[nH]1 [cj-82, methyl ((1S)-2-((2S)-2-(5-(4′-(2-((2S)-1-((2S,3R)-3-methoxy-2-((methoxycarbonyl)amino)butanoyl)-2-pyrrolidinyl)-1H-imidazol-5-yl)-4-biphenylyl)-1H-imidazol-2-yl)-1-pyrrolidinyl)-2-oxo-1-(3-pyridinylmethyl)ethyl)carbamate] | 9.00 to 12.00
16 | COC(=O)N[C@@H](C(=O)N[C@@H](C)c1ncc(-c2cnc(-c3ccc(-c4cnc([C@@H]5CCCN5C(=O)[C@H](NC(=O)OC)c5ccccc5)[nH]4)cc3)nc2)[nH]1)c1ccccc1 [Example 152j-17, methyl ((1R)-2-((2S)-2-(5-(4-(5-(2-((1S)-1-(((2R)-2-((methoxycarbonyl)amino)-2-phenylacetyl)amino)ethyl)-1H-imidazol-5-yl)-2-pyrimidinyl)phenyl)-1H-imidazol-2-yl)-1-pyrrolidinyl)-2-oxo-1-phenylethyl)carbamate] | 9.00 to 12.00
17 | CN1CCC[C@H]1C(=O)N[C@@H](C(=O)N1CCC[C@H]1c1ncc(-c2ccc(-c3ccc(-c4cnc([C@@H]5CCCN5C(=O)[C@@H]5CCCO5)[nH]4)cc3)cc2)[nH]1)c1ccccc1 [Example 113, 1-methyl-N-((1R)-2-oxo-1-phenyl-2-((2S)-2-(5-(4′-(2-((2S)-1-((2S)-tetrahydro-2-furanylcarbonyl)-2-pyrrolidinyl)-1H-imidazol-5-yl)-4-biphenylyl)-1H-imidazol-2-yl)-1-pyrrolidinyl)ethyl)-L-prolinamide] | 9.00 to 12.00
18 | COC(=O)N[C@@H](C)C(=O)N1CCC[C@H]1c1nc(-c2cnc(-c3ccc(-c4cnc([C@@H]5CCCN5C(=O)[C@H](C)NC(=O)OC)[nH]4)c(F)c3)nc2)c[nH]1 [Example D67, methyl ((1S)-2-((2S)-2-(5-(2-fluoro-4-(5-(2-((2S)-1-(N-(methoxycarbonyl)-L-alanyl)-2-pyrrolidinyl)-1H-imidazol-5-yl)-2-pyrimidinyl)phenyl)-1H-imidazol-2-yl)-1-pyrrolidinyl)-1-methyl-2-oxoethyl)carbamate] | 9.00 to 12.00
19 | COC(=O)N[C@H](C(=O)N1[C@@H](C)CC[C@H]1c1ncc(-c2ccc(-c3ccc(-c4cnc([C@@H]5CC[C@H](C)N5C(=O)[C@@H](NC(=O)OC)C(C)C)[nH]4)cc3)cc2)[nH]1)C(C)C [Example M151, methyl ((1S)-1-(((2S,5S)-2-(4-(4′-(2-((2S,5S)-1-((2S)-2-((methoxycarbonyl)amino)-3-methylbutanoyl)-5-methyl-2-pyrrolidinyl)-1H-imidazol-4-yl)-4-biphenylyl)-1H-imidazol-2-yl)-5-methyl-1-pyrrolidinyl)carbonyl)-2-methylpropyl)carbamate] | 9.00 to 12.00

Source: patent publication US8574563B2 (Bristol-Myers Squibb Company, priority 2006, dated 2013)
